Assays:
Type in all cases: cell-based
human TLR7 = target: T1, human TLR7 (Homo sapiens, UniProt Q9NYK1); assay: TLR7 inhibition reporter assay (HEK-Blue SEAP reporter); conditions: HEK-Blue cells overexpressing human TLR7; gardiquimod 7.5 μM; 22 hour incubation
T1 construct: host or cells: HEK-Blue cells
T1 sequence (Q9NYK1 27-1049): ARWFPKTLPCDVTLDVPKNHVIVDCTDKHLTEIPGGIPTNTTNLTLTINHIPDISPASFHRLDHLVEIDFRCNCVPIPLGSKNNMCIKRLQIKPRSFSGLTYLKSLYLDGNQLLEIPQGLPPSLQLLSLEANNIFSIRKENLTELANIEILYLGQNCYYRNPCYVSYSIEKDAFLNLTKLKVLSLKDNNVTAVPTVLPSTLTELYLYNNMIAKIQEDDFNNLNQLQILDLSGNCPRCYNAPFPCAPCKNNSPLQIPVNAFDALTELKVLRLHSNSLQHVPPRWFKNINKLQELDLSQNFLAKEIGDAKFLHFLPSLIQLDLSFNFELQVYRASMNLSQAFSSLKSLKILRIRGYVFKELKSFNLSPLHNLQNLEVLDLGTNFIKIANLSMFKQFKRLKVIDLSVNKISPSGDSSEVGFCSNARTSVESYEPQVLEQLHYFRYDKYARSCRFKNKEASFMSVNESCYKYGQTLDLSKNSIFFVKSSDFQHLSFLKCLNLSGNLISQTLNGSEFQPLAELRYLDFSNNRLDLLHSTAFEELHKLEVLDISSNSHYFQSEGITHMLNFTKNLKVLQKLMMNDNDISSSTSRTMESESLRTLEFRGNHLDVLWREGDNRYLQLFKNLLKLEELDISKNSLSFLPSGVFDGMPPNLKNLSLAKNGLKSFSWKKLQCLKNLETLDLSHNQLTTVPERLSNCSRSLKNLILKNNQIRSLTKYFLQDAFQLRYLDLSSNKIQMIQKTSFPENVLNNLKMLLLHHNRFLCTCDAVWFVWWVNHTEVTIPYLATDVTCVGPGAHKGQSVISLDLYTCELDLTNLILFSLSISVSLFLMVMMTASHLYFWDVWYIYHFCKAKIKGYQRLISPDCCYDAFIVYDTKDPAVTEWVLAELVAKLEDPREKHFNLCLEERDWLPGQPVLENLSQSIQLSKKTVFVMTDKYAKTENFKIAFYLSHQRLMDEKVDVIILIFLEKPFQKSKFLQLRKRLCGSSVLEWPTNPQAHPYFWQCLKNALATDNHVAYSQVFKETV
Outline: (§1)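 Screening used HEK-Blue cells overexpressing one human TLR (7, 8 or 9) and an IFN-β minimal promoter–NF-κB/AP-1 SEAP construct. Stimulation lasted 22 h at 37 °C with receptor-specific agonist: gardiquimod, R848 or ODN2006 at 7.5 μM, 15.9 μM and 5 nM.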

human TLR8 = target: T2, human TLR8 (Homo sapiens, UniProt Q9NR97); assay: TLR8 inhibition reporter assay (HEK-Blue SEAP reporter); conditions: HEK-Blue cells overexpressing human TLR8; R848 15.9 μM; 22 hour incubation
T2 construct: host or cells: HEK-Blue cells
T2 sequence (Q9NR97 27-1041): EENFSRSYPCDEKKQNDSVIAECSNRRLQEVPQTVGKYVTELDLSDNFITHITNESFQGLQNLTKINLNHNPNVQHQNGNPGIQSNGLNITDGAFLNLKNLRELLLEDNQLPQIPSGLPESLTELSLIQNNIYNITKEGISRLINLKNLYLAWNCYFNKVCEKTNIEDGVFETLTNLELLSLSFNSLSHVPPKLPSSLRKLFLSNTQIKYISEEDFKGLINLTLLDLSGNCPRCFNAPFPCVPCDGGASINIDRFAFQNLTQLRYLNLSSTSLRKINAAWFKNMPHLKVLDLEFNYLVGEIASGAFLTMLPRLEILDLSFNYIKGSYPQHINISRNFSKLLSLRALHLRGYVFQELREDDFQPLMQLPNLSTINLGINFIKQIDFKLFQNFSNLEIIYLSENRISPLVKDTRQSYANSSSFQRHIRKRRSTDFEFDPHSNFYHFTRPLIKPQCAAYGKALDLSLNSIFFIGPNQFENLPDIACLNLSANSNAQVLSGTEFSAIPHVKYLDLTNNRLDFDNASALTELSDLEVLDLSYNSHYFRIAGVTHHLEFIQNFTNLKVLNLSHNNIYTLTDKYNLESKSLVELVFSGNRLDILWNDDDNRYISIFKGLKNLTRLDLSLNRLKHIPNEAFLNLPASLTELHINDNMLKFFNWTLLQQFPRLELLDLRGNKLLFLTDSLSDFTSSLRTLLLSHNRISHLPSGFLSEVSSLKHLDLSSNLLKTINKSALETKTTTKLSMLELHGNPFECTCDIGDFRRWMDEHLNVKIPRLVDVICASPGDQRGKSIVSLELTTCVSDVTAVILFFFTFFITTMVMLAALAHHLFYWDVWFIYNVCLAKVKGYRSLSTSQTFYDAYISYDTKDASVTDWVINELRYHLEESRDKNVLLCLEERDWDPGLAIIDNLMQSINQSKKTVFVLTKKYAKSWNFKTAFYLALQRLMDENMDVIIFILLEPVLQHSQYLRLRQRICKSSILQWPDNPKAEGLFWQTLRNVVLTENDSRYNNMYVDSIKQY
Outline: as §1

human TLR9 = target: T3, human TLR9 (Homo sapiens, UniProt Q9NR96); assay: TLR9 inhibition reporter assay (HEK-Blue SEAP reporter); conditions: HEK-Blue cells overexpressing human TLR9; ODN2006 5 nM; 22 hour incubation
T3 construct: host or cells: HEK-Blue cells
T3 sequence (Q9NR96 26-1032): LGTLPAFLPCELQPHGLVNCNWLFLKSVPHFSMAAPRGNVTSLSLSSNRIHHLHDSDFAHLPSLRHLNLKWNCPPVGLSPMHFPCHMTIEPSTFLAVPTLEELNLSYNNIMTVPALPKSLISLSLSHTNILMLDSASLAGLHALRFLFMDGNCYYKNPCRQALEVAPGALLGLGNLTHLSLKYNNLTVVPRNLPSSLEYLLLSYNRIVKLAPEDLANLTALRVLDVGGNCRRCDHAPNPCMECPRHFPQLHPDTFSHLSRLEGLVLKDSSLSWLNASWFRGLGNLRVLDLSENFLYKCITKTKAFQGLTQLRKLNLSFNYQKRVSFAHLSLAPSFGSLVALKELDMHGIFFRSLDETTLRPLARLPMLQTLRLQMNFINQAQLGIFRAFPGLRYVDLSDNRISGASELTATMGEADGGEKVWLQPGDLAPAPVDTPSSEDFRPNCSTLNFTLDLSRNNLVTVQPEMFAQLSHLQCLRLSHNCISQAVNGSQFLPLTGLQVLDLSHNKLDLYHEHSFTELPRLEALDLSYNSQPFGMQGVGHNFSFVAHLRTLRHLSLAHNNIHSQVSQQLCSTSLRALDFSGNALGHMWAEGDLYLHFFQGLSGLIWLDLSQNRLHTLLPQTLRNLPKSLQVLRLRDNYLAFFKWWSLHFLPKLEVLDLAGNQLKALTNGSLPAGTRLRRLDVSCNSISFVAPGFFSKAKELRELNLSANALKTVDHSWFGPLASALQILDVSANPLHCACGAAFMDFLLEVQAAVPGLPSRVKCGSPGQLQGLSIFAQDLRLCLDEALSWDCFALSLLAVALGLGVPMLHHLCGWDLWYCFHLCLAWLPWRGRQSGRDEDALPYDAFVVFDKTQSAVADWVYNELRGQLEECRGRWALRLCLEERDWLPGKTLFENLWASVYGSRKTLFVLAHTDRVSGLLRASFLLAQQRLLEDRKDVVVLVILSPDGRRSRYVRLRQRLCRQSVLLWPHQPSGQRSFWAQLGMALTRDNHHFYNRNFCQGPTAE
Outline: as §1

Compound	IC50 (human TLR7)	IC50 (human TLR8)	IC50 (human TLR9)
COc1ccc(-c2[nH]c3ccc(N4CCC(N5CCN(C(C)C)CC5)CC4)cc3c2C(C)C)cc1OC [Example 85, 2-(3,4-dimethoxyphenyl)-3-isopropyl-5-(4-(4-isopropylpiperazin-1-yl)piperidin-1-yl)-1H-indole]	23 nM	16 nM	637 nM
COc1ccc(-c2[nH]c3ccc(N4CCC(NCCN5CCOCC5)CC4)cc3c2C(C)C)cc1OC [Example 86, 1-(2-(3,4-dimethoxyphenyl)-3-isopropyl-1H-indol-5-yl)-N-(2-morpholinoethyl)piperidin-4-amine]	41 nM	4.8 nM	2800 nM
COc1ccc(-c2[nH]c3ccc(N4CCC(NC5CCN(C(C)=O)CC5)CC4)cc3c2C(C)C)cc1OC [Example 89, 1-(4-((1-(2-(3,4-dimethoxyphenyl)-3-isopropyl-1H-indol-5-yl)piperidin-4-yl)amino)piperidin-1-yl) ethan-1-one]	31 nM	5 nM	2000 nM
COc1ccc(-c2[nH]c3ccc(N4CCC(N5CCN(C(C)(C)C)CC5)CC4)cc3c2C(C)C)cc1OC [Example 90, 5-(4-(4-(tert-butyl)piperazin-1-yl)piperidin-1-yl)-2-(3,4-dimethoxyphenyl)-3-isopropyl-1H-indole]	37 nM	19 nM	809 nM
COc1ccc(-c2[nH]c3ccc(N4CCC(N5CCN(CC(C)C)CC5)CC4)cc3c2C(C)C)cc1OC [Example 91, 2-(3,4-dimethoxyphenyl)-5-(4-(4-isobutylpiperazin-1-yl)piperidin-1-yl)-3-isopropyl-1H-indole]	116 nM	92 nM	1940 nM
COCCN1CCN(C2CCN(c3ccc4[nH]c(-c5ccc(OC)c(OC)c5)c(C(C)C)c4c3)CC2)CC1 [Example 92, 2-(3,4-dimethoxyphenyl)-3-isopropyl-5-(4-(4-(2-methoxyethyl)piperazin-1-yl)piperidin-1-yl)-1H-indole]	19 nM	12 nM	1750 nM
COc1ccc(-c2[nH]c3ccc(N4CCC(N5CCN(c6ccncc6)CC5)CC4)cc3c2C(C)C)cc1OC [Example 94, 2-(3,4-dimethoxyphenyl)-3-isopropyl-5-(4-(4-(pyridin-4-yl)piperazin-1-yl)piperidin-1-yl)-1H-indole]	33 nM	3.5 nM	816 nM
COc1ccc(-c2[nH]c3ccc(N4CCC(NC5CC(C)(C)N(C)C(C)(C)C5)CC4)cc3c2C(C)C)cc1OC [Example 95, N-(1-(2-(3,4-dimethoxyphenyl)-3-isopropyl-1H-indol-5-yl)piperidin-4-yl)-1,2,2,6,6-pentamethylpiperidin-4-amine]	39 nM	7.8 nM	533 nM
COc1ccc(-c2[nH]c3ccc(N4CCC(C5CCN(Cc6cccn6C)CC5)CC4)cc3c2C(C)C)cc1OC [Example 96, 2-(3,4-dimethoxyphenyl)-3-isopropyl-5-(1′-((1-methyl-1H-pyrrol-2-yl)methyl)-[4,4′-bipiperidin]-1-yl)-1H-indole]	436 nM	1050 nM	2840 nM

More lines, now with the values ahead:

IC50 (human TLR7)	IC50 (human TLR8)	IC50 (human TLR9)	Compound
862 nM	1910 nM	6610 nM	COc1ccc(-c2[nH]c3ccc(N4CCC(C5CCN(CCC(F)(F)F)CC5)CC4)cc3c2C(C)C)cc1OC [Example 97, 2-(3,4-dimethoxyphenyl)-3-isopropyl-5-(1′-(3,3,3-trifluoropropyl)-[4,4′-bipiperidin]-1-yl)-1H-indole]
11 nM	62 nM	538 nM	COc1ccc(-c2[nH]c3ccc(N4CCC(N5CCN(C6CCN(C)CC6)CC5)CC4)cc3c2C(C)C)cc1OC [Example 99, 2-(3,4-dimethoxyphenyl)-3-isopropyl-5-(4-(4-(1-methylpiperidin-4-yl)piperazin-1-yl)piperidin-1-yl)-1H-indole]
16 nM	28 nM	413 nM	COc1ccc(-c2[nH]c3ccc(N4CCC(N5CCN(CCCN6CCCC6)CC5)CC4)cc3c2C(C)C)cc1OC [Example 102, 2-(3,4-dimethoxyphenyl)-3-isopropyl-5-(4-(4-(3-(pyrrolidin-1-yl)propyl)piperazin-1-yl)piperidin-1-yl)-1H-indole]
1120 nM	8.2 nM	2670 nM	COc1ccc(-c2[nH]c3ccc(NC4CC(C)(C)N(C)C(C)(C)C4)cc3c2C(C)C)cc1OC [Example 103, 2-(3,4-dimethoxyphenyl)-3-isopropyl-N-(1,2,2,6,6-pentamethylpiperidin-4-yl)-1H-indol-5-amine]
1310 nM	9.7 nM	6820 nM	COc1ccc(-c2[nH]c3ccc(N(C)CC4CCCN4C)cc3c2C(C)C)cc1OC (stereo not drawn) [Example 104, 2-(3,4-dimethoxyphenyl)-3-isopropyl-N-methyl-N-((1-methylpyrrolidin-2-yl)methyl)-1H-indol-5-amine]
